Columns and labels:
[1] = system: T1, 6-O-α-rhamnosyl-β-glucosidase (αRβG); experiment: hydrolysis; reducing sugars by […],4-dinitrosalicylic acid, Michaelis-Menten fit; type: biochemical, Sarocladium strictum; conditions: 50 mM sodium phosphate pH 6.0, 60 °C, 1 h
T1 construct: native, purified from culture supernatant of S. strictum; 99 kDa by SDS-PAGE; tryptic peptide TIHETYLAPWYDGVK matched to a 755-residue putative glycoside hydrolase (21-residue signal peptide) of another strain, A. strictum DS1bioAY4a, JGI ID 1029425

[2] = system: T1, 6-O-α-rhamnosyl-β-glucosidase (αRβG); experiment: hydrolysis; product release, Michaelis-Menten fit; type: biochemical, Sarocladium strictum; conditions: 50 mM sodium phosphate pH 6.0, 60 °C, 1 h

| Structure (SMILES) | Km [1] [µM] | Km [2] [µM] |
| --- | --- | --- |
| COc1ccc([C@@H]2CC(=O)c3c(O)cc(O[C@@H]4O[C@H](CO[C@@H]5O[C@@H](C)[C@H](O)[C@@H](O)[C@H]5O)[C@@H](O)[C@H](O)[C@H]4O)cc3O2)cc1O [hesperidin] | 700 ± 120 | – |
| C[C@@H]1O[C@@H](OC[C@H]2O[C@@H](Oc3c(-c4ccc(O)c(O)c4)oc4cc(O)cc(O)c4c3=O)[C@H](O)[C@@H](O)[C@@H]2O)[C@H](O)[C@H](O)[C@H]1O [rutin] | – | 473 ± 4 |
